Results taken from patent US20110082080A1, “COMPOSITIONS AND METHODS OF USING THE HUMAN PROISLET PEPTIDE RECEPTOR” (CUREDM GROUP HOLDINGS, LLC, priority 2007, published 2011).
Where no end group is shown, it is not given here.

Key:
NOD mice = test: Pilot non obese diabetic (NOD) mouse study with lysophylline (LSF); type: in vivo; settings: one NOD mouse per group; peptides given plus LSF; not statistically significant study; FIG. 11
Excerpt: The non obese diabetic (NOD) model is used as a model for type 1 autoimmune diabetes. This form of diabetes is the most challenging in that the underlying damage to the pancreas and its insulin production is due to autoimmune attack. Therefore, in order to show definitive islet neogenesis in this form of diabetes an immune tolerance agent must be used in combination with HIP. The NOD mouse model is extremely difficult model because many of the mice may only transiently become diabetic and go into remission, whereas others develop severe diabetes. The timing intervention in this transgenic mouse model is difficult to determine.
In a preliminary study that utilizing the immune tolerance agent, lysophylline (LSF) under development, three NOD mice that became diabetic and were randomized to placebo plus LSF, HIP2 plus LSF and HIP2B plus LSF.

PANC-1 cells = test: Impact of HIP and Optimized HIP peptides on PANC-1 cell morphology; type: cell-based, human; settings: treated four days; for cell morphology changes through 7 days: pictures days 1, 2, 3, 5, 7 at 200×, FIG. 9B
Method: The cells were treated with HIP and Optimized HIP peptides for four days. […] FIG. 9B show the progression of the cell morphology changes through 7 days, with the control on the top, HIP2 in the middle, and HIP2B on the bottom. Pictures were taken on days 1, 2, 3, 5, and 7 at 200× magnification.

HIP receptor/EXTL3 = molecular target: T1, HIP receptor/EXTL3 (Homo sapiens, UniProt O43909); test: Cy3 immunofluorescence of HIP receptor/EXTL3 translocation in PANC-1 cells; type: cell-based; settings: for HIP receptor/EXTL3 trafficking from cytoplasmic membrane to nucleus: trypsin and serum free medium, FIG. 12
T1 construct: It was observed that EXTL3 is expressed in PANC-1 cells; endogenous in cells; host or cells: PANC-1 (human pancreatic ductal/epithelioid cell line)
T1 sequence (O43909 1-919): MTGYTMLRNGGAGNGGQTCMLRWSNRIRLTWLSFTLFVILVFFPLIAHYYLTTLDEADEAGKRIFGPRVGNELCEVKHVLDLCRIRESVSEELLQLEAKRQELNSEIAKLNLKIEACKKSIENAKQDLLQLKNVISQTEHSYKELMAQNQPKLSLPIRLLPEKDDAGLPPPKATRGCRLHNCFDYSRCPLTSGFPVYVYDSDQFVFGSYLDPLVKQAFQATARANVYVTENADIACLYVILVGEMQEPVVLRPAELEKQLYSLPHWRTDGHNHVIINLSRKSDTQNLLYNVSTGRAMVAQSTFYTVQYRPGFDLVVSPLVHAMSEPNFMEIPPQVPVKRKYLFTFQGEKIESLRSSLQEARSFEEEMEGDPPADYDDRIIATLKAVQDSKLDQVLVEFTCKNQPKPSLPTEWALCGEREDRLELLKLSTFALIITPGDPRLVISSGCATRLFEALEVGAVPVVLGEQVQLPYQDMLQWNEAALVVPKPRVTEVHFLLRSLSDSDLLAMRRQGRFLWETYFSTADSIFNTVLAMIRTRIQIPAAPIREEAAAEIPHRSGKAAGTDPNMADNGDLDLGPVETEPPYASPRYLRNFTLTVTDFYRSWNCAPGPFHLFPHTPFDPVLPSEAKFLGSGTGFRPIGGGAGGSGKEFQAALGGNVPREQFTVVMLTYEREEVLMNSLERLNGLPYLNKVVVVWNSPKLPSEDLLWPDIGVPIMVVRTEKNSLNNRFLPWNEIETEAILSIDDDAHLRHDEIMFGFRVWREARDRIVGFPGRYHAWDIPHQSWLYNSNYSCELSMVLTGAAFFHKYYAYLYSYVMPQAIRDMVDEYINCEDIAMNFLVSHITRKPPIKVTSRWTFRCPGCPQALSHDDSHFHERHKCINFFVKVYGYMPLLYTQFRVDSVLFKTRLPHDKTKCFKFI
Method: Impact of HIP2B and HIP2 on HIP Receptor. To provide evidence that EXTL3 interacts with HIP, an experiment was conducted where human ductal cell line PANG-1 was used as a source of EXTL3. Using an antibody directed against EXTL3, PANC-1 cells were immunostained after being grown under conditions that differentiate these cells into islet-like cells. PANC-1 cells were grown in a standard growth medium containing 10% fetal bovine serum, or in a serum free medium (SFM) or SFM containing HIP.
The receptor for Human ProIslet Peptide was labeled using a double antibody method in a stable human pancreatic cell line. The first antibody was a rabbit polyclonal and the second was a goat-anti-rabbit labeled with Cy3 fluorescent dye.
These cells grow normally in serum free media and when treated with trypsin, are destabilized and made competent to undergo developmental changes. Cells were cultured in serum free media (SFM) with and without HIP, and in serum free media with trypsin (TSFM).
When treated with HIP under stable conditions, no changes result. When treated with HIP under developmentally competent conditions, the labeled receptor responds to the presence of HIP by being encapsulated by the cytoplasmic membrane and moving to the nuclear membrane where the signals for differentiation are received.
HIP stimulates the receptor membrane bound protein to be engulfed by the cytoplasmic membrane and transported to the nuclear membrane under adjusted exposure.

EXTL3 = molecular target: T2, EXTL3 (Homo sapiens, UniProt O43909); test: Western blot of EXTL3 in cytosolic and nuclear fractions of PANC-1 cells; type: cell-based; settings: PANC-1 cells in SFM; FIG. 14; without HIP nuclear EXTL3 observed at 6 hours
T2 construct: It was observed that EXTL3 is expressed in PANC-1 cells; endogenous in cells; host or cells: PANC-1 (human pancreatic ductal/epithelioid cell line)
T2 sequence (O43909 1-919): T1 sequence (O43909 1-919)
Method: Western blot and immunofluorescence analyses of EXTL3 localization were performed in human PANC-1 cells grown under conditions that differentiate these cells into islet-like cells. EXTL3 is predominantly located on the external surface of the cytoplasmic membrane and its structure includes a single transmembrane region located inside of the cytoplasmic membrane. PANC-1 cells were grown in a standard growth medium or in a serum free medium (SFM) containing HIP.

[1] = test system: ductal fraction of human pancreatic cells; test: HIP2B activity in human pancreatic ductal tissue culture (CK19, nuclei and insulin staining); type: cell-based; settings: cultured 10 days in collagen matrix, treated every other day; FIG. 10
Method: The ductal fraction of human pancreatic cells were cultured for 10 days in a collagen matrix and then treated every other day with HIP2B. Cells were labeled by double antibody staining for CK 19, a marker for ductal tissue, and DAP1 staining to show nuclei and insulin.

[2] = test system: streptozotcin-treated mice rendered diabetic; test: Repeated study in streptozotocin-treated diabetic mice with HIP2 and Optimized HIP2B; type: in vivo, mouse; settings: for Total Islet Mass (μm2) / Total Islets: Table 3; for Total Islet Mass (% increase) / Total Islets (% increase): Table 3, vs placebo
Excerpt: Differences between the two groups of HIP2B and placebo were statistically significant for both an increase in total islet mass (p=0.040) and total islet numbers (p=0.032), with the HIP2B group indicating larger values for both islet mass (M=416714.67, SD=121,389.01) and islet number (M=94, SD=32.74) than for the placebo group (islet mass: M=127410.67, SD=96930.78, islet number: M=31.67, SD=15.28).

[3] = test system: mice rendered diabetic with streptozotocin; test: Streptozocin diabetic mouse study of HIP3, HIP1, HIP2 and hamster INGAP; type: in vivo; settings: for total islet numbers vs placebo (significance): FIG. 6, p=0.022; for total islet mass vs placebo (significance): FIG. 6, p=0.05; for Total Islet Mass (μm2) / Total Islets: Table 2, initial study; for Total Islets: histology of pancreata; for Total Islet Mass (% increase) / Total Islets (% increase): Table 2, vs placebo; for islet area: placebo 142,394, p=0.05, FIG. 6
Method: In Vivo Studies. HIP3, HIP1, HIP2 and hamster INGAP have been the subject of in vivo studies in mice. […] The subject number was selected to yield a sufficient number of diabetic animals for the study and animals were randomly assigned to study groups. All animals were dosed via intraperitoneal injections twice daily (am and pm) for 28 consecutive days. The timing of dose administration remained consistent (±2 hours) during the dosing phase.
Mice were injected intraperitoneally with streptozocin at 40 mg/kg in citrate buffer, pH 4.5, on 5 consecutive days in an attempt to render them diabetic. […] If the blood glucose level in any animal rose to above 400 mg/dL, the animal was treated with insulin. Every 3 days, at the same time each day, a nick was made on the tail and a drop of blood was collected. Glucose measurements were determined using a glucose meter. Group assignments and dose levels were as follows in Table 1:
Study endpoints included the following: changes in glucose; changes in insulin requirements; and histology of post-mortem pancreata.

[4] = test system: human pancreatic ductal tissue; test: Insulin levels by radioimmunoassay in human pancreatic ductal fraction cultures; type: cell-based; settings: human ductal tissue cultured with peptide; treated day 10 and 12, lysed after 1 week; vs negative control
Method: In Vitro Proof of Concept of HIP Activity. Human pancreatic islet and ductal fractions were cultured over 10 days and then treated in a blinded study. Radioimmunoassay methods were used to measure insulin levels in the human pancreatic cultures treated with a scrambled peptide serving as a negative control, HIP3, HIP1, HIP2 and hamster-derived INGAP serving as a positive control. Peptides were synthesized (95% pure, research grade).
Duplicate cultures were treated in both ductal and islet fractions of human pancreatic tissue on day 10 and day 12 and then lysed for detection of insulin content after 1 week of treatment HIP peptides, control and INGAP. During 10-day culture, the insulin production goes down and then after treatment with HIP peptides, insulin is produced again.
The ductal and islet tissue were separated using the Ricordi method. Neither ductal cell nor islet culture was completely homogeneous in nature. […] The studies were repeated with similar findings shown in the following chart, with as much as a four-fold increase in insulin levels by radioimmunoassay among human ductal tissue cultured with HIP2.
The ductal fraction graph as shown in FIG. 2 depicts the insulin levels on the y axis as measured by radioimmunoassay after incubation in culture with human pancreatic ductal tissue. […]

[5] = 250 μg intraperitoneal twice daily, 28 days

Row | Molecule | glucose levels during the study (NOD mice) | cell morphology changes through 7 days (PANC-1 cells) | HIP receptor/EXTL3 trafficking from cytoplasmic membrane to nucleus (HIP receptor/EXTL3) | EXTL3 translocation by Western blot (EXTL3) | Total Islet Mass (μm2) [2] | Total Islets [2] | Total Islet Mass (% increase) [2] [%] | Total Islets (% increase) [2] [%] | lower mean glucose vs control [3, 5] [%] | total islet numbers vs placebo (significance) [3] | total islet mass vs placebo (significance) [3] | Total Islet Mass (μm2) [3] [μm2] | Total Islets [3] | Total Islet Mass (% increase) [3] [%] | Total Islets (% increase) [3] [%] | islet area [3] | other results
1 | C[C@@H](O)CCCCn1c(=O)c2c(ncn2C)n(C)c1=O [LSF, lysophylline, reference compound] | gradual elevations in glucose | – | – | – | – | – | – | – | – | – | – | – | – | – | – | – | –
2 | Ac-Ile-Gly-Leu-His-Asp-Pro-Thr-Gln-Gly-Thr-Glu-Pro-Asn-Gly-NH2 (Ac-IGLHDPTQGTEPNG-NH2) [HIP2B] | steadily improved glucose levels | deviate significantly from their initial appearance | stimulated traffic from the HIP receptor on the cytoplasmic membrane into the nucleus | enhancing EXTL3 translocation from the cytoplasmic membrane to the nucleus | 416,715 μm2 | 94 | 398 | 168 | – | – | – | – | – | – | – | – | morphological differences vs control on day 7 (PANC-1 cells; 200×, FIG. 9A): histologically more differentiated cells; interaction with receptor/EXTL3 and trafficking to nucleus, compared with HIP2 (HIP receptor/EXTL3): as effective as HIP2; insulin expression after treatment [1]: induced insulin expression in otherwise insulin negative cells; rise in the total number of islets compared to placebo-treated mice ([2]; fold): three-fold; islet number (M) ([2]; mean, SD=32.74, placebo M=31.67, p=0.032): 94; islet mass (M) ([2]; mean, SD=121,389.01, placebo M=127410.67, p=0.040): 416714.67; islet size vs placebo-treated mice ([2]; not statistically significant (t=0.708, p=0.518)): normally sized islets were generated
3 | IGLHDPTQGTEPNG [HIP2] | steadily improved glucose levels | deviate significantly from their initial appearance | stimulated traffic from the HIP receptor on the cytoplasmic membrane into the nucleus | enhancing EXTL3 translocation from the cytoplasmic membrane to the nucleus | 202,955 μm2 | 65 | 143 | 86 | 29.4 | significantly increased total islet numbers | significantly greater total islet mass | 2161782 | 454 | 153 | 62 | 360,297 μm(2) | day by which mice were completely insulin-free ([3]; 250 μg intraperitoneal twice daily, 28 days, FIG. 4): ≤ 21 days; increase in insulin levels by radioimmunoassay [4]: four-fold
4 | IGLHDPTQGTEPNGE [HIP3] | – | – | – | – | – | – | – | – | 57.3 | significantly increased total islet numbers | significantly greater total islet mass | 1703513 | 410 | 99 | 46 | 283,918 μm(2) | –
5 | WIGLHDPTQGTEPNG [HIP1] | – | – | – | – | – | – | – | – | 14.7 | – | – | – | – | – | – | – | –
